The record followed here is patent publication US7273880B2, “Selective NPY (Y5) antagonists” (H. Lunbeck A/S, priority 1999, dated 2007).

As a reminder, the Ki is the dissociation constant of the complex between target and ligand, obtained from inhibition or displacement. What is called Kb is the equilibrium dissociation constant of an antagonist, usually derived from a functional assay. One may read the melting point as the temperature, or range, at which the solid turns liquid.

Like-named read-outs stand apart in the source and are kept apart here.

Series [1] deals with T1, human Y5 receptor (hNPY-5) (Homo sapiens, UniProt Q15761).
T1 construct: expressed in transfected cells; host or cells: mouse fibroblast LM(tk-) cells, e.g. L-hY5-7 (ATCC CRL-11995)
T1 sequence (Q15761 1-445): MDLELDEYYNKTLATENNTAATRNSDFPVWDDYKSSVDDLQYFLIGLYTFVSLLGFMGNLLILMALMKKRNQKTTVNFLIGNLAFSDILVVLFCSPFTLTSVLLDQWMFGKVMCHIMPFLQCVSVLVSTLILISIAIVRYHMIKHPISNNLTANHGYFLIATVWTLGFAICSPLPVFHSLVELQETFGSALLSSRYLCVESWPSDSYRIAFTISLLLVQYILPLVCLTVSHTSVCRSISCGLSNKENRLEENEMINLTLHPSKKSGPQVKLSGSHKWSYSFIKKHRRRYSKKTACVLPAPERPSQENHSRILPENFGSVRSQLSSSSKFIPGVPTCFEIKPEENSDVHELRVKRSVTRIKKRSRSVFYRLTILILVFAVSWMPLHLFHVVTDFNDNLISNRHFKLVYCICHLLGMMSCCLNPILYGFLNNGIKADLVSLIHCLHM
Briefly: Radioligand binding to membranes, cloned human Y5 receptor. Summed up:
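Competition binding on membranes from stably transfected 293 or LM(tk-) cells, with 0.08 nM ¹²⁵I-PYY in pH 7.4 HEPES buffer plus 0.1% BSA, 120 min at 30 °C, filtration and counting. Nonspecific binding defined by 300 nM human NPY, or 100 nM human PP for Y4; nonlinear regression.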

Series [2] concerns the target hNPY-1,2,4 (human Y1, Y2, Y4 receptors). The experiment in a line: Radioligand binding to membranes, cloned human Y1, Y2 and Y4 receptors. The note with it: one bound given for all three. On the procedure:
Binding of the compounds of the present invention to human Y1, Y2, Y4, and Y5 receptors was evaluated using stably transfected 293 or LM(tk-) cells as described above. Stably transfected cell lines which may be used for binding assays include, for example, for the human Y1 receptor, 293-hY1-5 (deposited Jun. 4, 1996, under ATCC Accession No. CRL-12121), for the human Y2 receptor, 293-hY2-10 (deposited Jan. 27, 1994, under ATCC Accession No. CRL-11537), for the human Y4 receptor, L-hY4-3 (deposited Jan. 11, 1995, under ATCC Accession No. CRL-11779), and for human Y5 receptor, L-hY5-7 (deposited Nov. 15, 1995, under ATCC Accession No. CRL-11995). These cell lines were deposited with the American Type Culture Collection (ATCC), 10801 University Blvd., Manassas, Va. 20110-2209, U.S.A. under the provisions of the Budapest Treaty for the International Recognition of the Deposit of Microorganisms for the Purposes of Patent Procedure.
Membranes were harvested from COS-7 cells 48 hours after transient transfection. Adherent cells were washed twice in ice-cold phosphate buffered saline (138 mM NaCl, 8.1 mM Na2HPO4, 2.5 mM KCl, 1.2 mM KH2PO4, 0.9 mM CaCl2, 0.5 mM MgCl2, pH 7.4) and lysed by sonication in ice-cold sonication buffer (20 mM Tris-HCl, 5 mM EDTA, pH 7.7). Large particles and debris were cleared by low speed centrifugation (200×g, 5 min, 4° C.). Membranes were collected from the supernatant fraction by centrifugation (32,000×g, 18 min, 4° C.), washed with ice-cold hypotonic buffer, and collected again by centrifugation (32,000×g, 18 min, 4° C.). The final membrane pellet was resuspended by sonication into a small volume of ice-cold binding buffer (˜1 ml for every 5 plates: 10 mM NaCl, 20 mM HEPES, 0.22 mM KH2PO4, 1.26 mM CaCl2, 0.81 mM MgSO4, pH 7.4). Protein concentration was measured by the Bradford method (Bradford, 1976) using Bio-Rad Reagent, with bovine serum albumin as a standard. Membranes were held on ice for up to one hour and used fresh, or flash-frozen and stored in liquid nitrogen.
Membranes were prepared similarly from 293, LM(tk-), and NIH-3T3 cells. To prepare membranes from baculovirus infected cells, 2×10^7 Sf21 cells were grown in 150 mm tissue culture dishes and infected with a high-titer stock of hY5BB3. Cells were incubated for 2-4 days at 27° C., no CO2 before harvesting and membrane preparation as described above.
Membrane suspensions were diluted in binding buffer supplemented with 0.1% bovine serum albumin to yield an optimal membrane protein concentration so that ^125I-PYY (or alternative radioligand such as ^125I-NPY, ^125I-PYY3-36, or ^125I-[Leu^31Pro^34]PYY) bound by membranes in the assay was less than 10% of ^125I-PYY (or alternative radioligand) delivered to the sample (100,000 dpm/sample=0.08 nM for competition binding assays). ^125I-PYY (or alternative radioligand) and peptide competitors were also diluted to desired concentrations in supplemented binding buffer. Individual samples were then prepared in 96-well polypropylene microtiter plates by mixing 125I-PYY (25 μL) (or alternative radioligand), competing peptides or supplemented binding buffer (25 μL), and finally, membrane suspensions (200 μL). Samples were incubated in a 30° C. water bath with constant shaking for 120 min. Incubations were terminated by filtration over Whatman GF/C filters (pre-coated with 1% polyethyleneimine and air-dried before use), followed by washing with 5 mL of ice-cold binding buffer. Filter-trapped membranes were impregnated with MeltiLex solid scintillant (Wallac, Turku, Finland) and counted for ^125I in a Wallac Beta-Plate Reader. Alternatively, incubations were carried out in GF/C filter plates (pre-coated with 1% polyethyleneimine and air-dried before use), followed by vacuum filtration and three washes of 300 μL of ice-cold binding buffer. 50 μL of UltimaGold (Packard) scintillant were added and counted for ^125I in a Wallac MicroBeta Trilux. […]

The target of series [3] is T2, human Y5 receptor (h NPY-5) (Homo sapiens, UniProt Q15761).
T2 construct: expressed in transfected cells; host or cells: mouse fibroblast LM(tk-) cells, e.g. L-hY5-7 (ATCC CRL-11995)
T2 sequence (Q15761 1-445): T1 sequence (Q15761 1-445)
Briefly: Functional assay: radioimmunoassay of cAMP. It counts as cell-based. The note with it: functional antagonism, forskolin-stimulated cAMP, cells stably transfected with human Y5. On the procedure: LM(tk-) cells stably transfected with the human Y5 receptor were routinely converted from an adherent monolayer to a viable suspension. Adherent cells were harvested with trypsin at the point of confluence, resuspended in a minimal volume of complete DMEM for a cell count, and further diluted to a concentration of 10^6 cells/ml in suspension media (10% bovine calf serum, 10% 10× Medium 199 (Gibco), 9 mM NaHCO3, 25 mM glucose, 2 mM L-glutamine, 100 units/ml penicillin/100 μg/ml streptomycin, and 0.05% methyl cellulose). The cell suspension was maintained in a shaking incubator at 37° C., 5% CO2 for 24 hours. Membranes harvested from cells grown in this manner may be stored as large, uniform batches in liquid nitrogen. Alternatively, cells may be returned to adherent cell culture in complete DMEM by distribution into 96-well microtiter plates coated with poly-D-lysine (0.01 mg/ml) followed by incubation at 37° C., 5% CO2 for 24 hours. Cells prepared in this manner yielded a robust and reliable NPY-dependent response in cAMP radio-immunoassays as further described hereinbelow.
Stably transfected cells were seeded into 96-well microtiter plates and cultured until confluent. To reduce the potential for receptor desensitization, the serum component of the media was reduced to 1.5% for 4 to 16 hours before the assay. Cells were washed in Hank's buffered saline, or HBS (150 mM NaCl, 20 mM HEPES, 1 mM CaCl2, 5 mM KCl, 1 mM MgCl2, and 10 mM glucose) supplemented with 0.1% bovine serum albumin plus 5 mM theophylline and pre-equilibrated in the same solution for 20 min at 37° C. in 5% CO2. Cells were then incubated 5 min with 10 μM forskolin and various concentrations of receptor-selective ligands. The assay was terminated by the removal of HBS and acidification of the cells with 100 mM HCl. Intracellular cAMP was extracted and quantified with a modified version of a magnetic bead-based radioimmunoassay (Advanced Magnetics, Cambridge, Mass.). The final antigen/antibody complex was separated from free ^125I-cAMP by vacuum filtration through a PVDF filter in a microtiter plate (Millipore, Bedford, Mass.). Filters were punched and counted for ^125I in a Packard gamma counter. Binding data were analyzed using nonlinear regression and statistical techniques available in the GraphPAD Prism package (San Diego, Calif.).

The mark [4] stands for this setting: binding Ki as repeated in Table 4, read-out: Ki (h NPY-5).
The mark [5] stands for this setting: cloned human NPY Y5 receptor, radioligand competition binding, Tables 1-3, read-out: Ki, nM hNPY-5.

Regarding `CS(=O)(=O)NC[C@H]1CC[C@H](Nc2nc3c(s2)CCCc2ccc(F)cc2-3)CC1` [Example 11, trans-1-Aza-9-fluoro-4,5-dihydro-2-(4-(methyl-sulfonylamino-methyl)cyclohexyl)amino-3-thia-benzo[e]azulene], the inhibitory constant (Ki) in series [1] (setting [4]) is 6.4 nM; in series [1] (setting [5]), 6.4 nM; in series [2], over 10000 nM. The same compound gave a Kb in series [3] of 3.16 nM.
In the case of `CS(=O)(=O)N[C@H]1CC[C@H](CNc2nc3c(s2)CCCc2ccc(F)cc2-3)CC1` [Example 43, trans-N2-(4-Methylsulfonylamino)cyclohexylmethyl-9-fluoro-5,6-dihydro-4H-benzo[6,7]cyclohepta[d][1,3]-thiazol-2-amine], the results for the Ki in series [1] (setting [4]), in series [1] (setting [5]) and in series [2] were 4.4 nM, 4.4 nM and over 10000 nM, respectively. The same compound showed a Kb in series [3] of 15.8 nM.
Turning to `COc1ccc(C)cc1S(=O)(=O)NCCCCCNc1nc2c(s1)CCCc1ccc(F)cc1-2` [Example 15, 1-Aza-9-fluoro-4,5-dihydro-2-(5-(2-methoxy-5-methyl-phenyl)sulfonylamino)pentylamino-3-thia-benzo[e]-azulene], the Ki in series [1] (setting [4]) and in series [1] (setting [5]) was 3.2 nM in each case. Also, the Kb in series [3] was 2.51 nM.
As for `O=S(=O)(CC(F)(F)F)NCCCCCNc1nc2c(s1)CCCc1ccc(F)cc1-2` [Example 20, 1-Aza-9-fluoro-2-(5-(2-trifluoroethyl)sulfonylamino)-pentylamino-4,5-dihydro-3-thia-benzo [e]azulene], the Ki in series [1] (setting [4]) was 0.3 nM; in series [1] (setting [5]), 5.8 nM; in series [2], over 10000 nM. Further, in series [3], the Kb is 5.01 nM.
On to `CS(=O)(=O)N[C@H]1CC[C@H](CNc2nc3c(s2)CCOc2ccccc2-3)CC1` [Example 50, trans-N2-(4-Methylsulfonylamino)cyclohexylmethyl-4,5-dihydro-benzo[2,3]oxepino[4,5-d][1,3]thiazol-2-amine], for which the melting point fell in the range of 64 to 67 °C. Moreover, in series [1] (setting [4]), the Ki is 15.3 nM. Also, the Ki in series [1] (setting [5]) was found to be 15.3 nM. Also, the Kb in series [3] was 7.94 nM.
The compound `O=S(=O)(CC(F)(F)F)N[C@H]1CC[C@H](Nc2nc3c(s2)CCCc2ccc(F)cc2-3)CC1` [Example 38, trans-1-Aza-9-fluoro-4,5-dihydro-2-(4-(2,2,2-trifluoro-ethyl)sulfonylamino)cyclohexylamino-3-thia-benzo [e]azulene] showed a melting point of 89 to 91 °C. Also, the Ki in series [1] (setting [5]) worked out at 15.8 nM. Moreover, the inhibition constant Ki in series [2] was over 10000 nM.
`CS(=O)(=O)N[C@H]1CC[C@H](Nc2nc3c(s2)CCCc2ccc(F)cc2-3)CC1` [Example 34, trans-1-Aza-9-fluoro-4,5-dihydro-2-(4-methyl-sulfonylamino)-cyclohexylamino-3-thia-benzo[e]azulene] showed a melting point of 179 to 181 °C. Moreover, in series [1] (setting [4]), the inhibitory constant (Ki) came to 33.5 nM. The inhibition constant Ki in series [1] (setting [5]) is 34 nM. Moreover, in series [3], the Kb is 63.1 nM.
On to `Cn1cnc(S(=O)(=O)NCCCCCNc2nc3c(s2)CCCc2ccc(F)cc2-3)c1` [Example 23, 1-Aza-9-fluoro-4,5-dihydro-2-(5-(1-methylimidazol-4-yl)sulfonylamino)pentylamino-3-thia-benzo[e]azulene], for which the melting point lay in the range of 50 to 53 °C. Moreover, the inhibitory constant (Ki) in series [1] (setting [5]) came to 15.5 nM. Also, in series [2], the Ki was over 10000 nM.
In the case of `O=C1OCCN1C[C@H]1CC[C@H](Nc2nc3c(s2)CCCc2ccc(F)cc2-3)CC1` [Example 79, 3-({4-[(9-fluoro-5,6-dihydro-4H-benzo[6,7]cyclohepta-[d][1,3]thiazol-2-yl)amino]cyclohexyl}methyl)-1,3-oxazolan-2-one], the inhibition constant Ki in series [1] (setting [4]) came to 20.1 nM; in series [1] (setting [5]), 20 nM. Further, in series [3], the Kb was 12.6 nM.
`O=S(=O)(NCCCCCNc1nc2c(s1)CCCc1ccc(F)cc1-2)c1cccs1` [Example 19, 1-Aza-9-fluoro-4,5-dihydro-2-(5-(2-thienyl)-sulfonylamino)-pentylamino-3-thia-benzo[e]azulene] returned a melting point of 152 to 154 °C. The Ki in series [1] (setting [5]) is 5 nM. In series [2], this compound had a Ki of over 10000 nM.
For the compound `COCC(=O)NC[C@H]1CC[C@H](Nc2nc3c(s2)CCCc2ccc(F)cc2-3)CC1` [Example 80, N1-({4-[(9-fluoro-5,6-dihydro-4H-benzo[6,7]-cyclohepta-[d][1,3]thiazol-2-yl)amino]cyclohexyl}-methyl)-2-methoxyacetamide], the inhibitory constant (Ki) was 32.9 nM in series [1] (setting [4]) and 33 nM in series [1] (setting [5]). This compound also gave a Kb in series [3] of 39.8 nM.
